The values below come from patent US20260207605A1, “KRAS G12D INHIBITORS AND USES THEREOF” (Abbisko Therapeutics Co., Ltd., priority 2022, published 2026).

The target in one data set is KRAS^G12D/cRAF (Homo sapiens, UniProt P01116, G12D). Description: KRAS G12D/cRAF binding test (Alphalisa). The conditions noted are these: His-tagged KRAS G12D with GMPPNP, GST-tagged cRAF. How it is done: The compound was dissolved in 100% DMSO at a starting concentration of 5 mM and diluted in DMSO with a 3-fold serial dilution method for a total of 8 concentration points. 1 μL of the compound or DMSO at each concentration point was added into 99 μL of the experimental buffer to obtain 10× stock solution.
Sequence of KRAS^G12D/cRAF (P01116 1-188 isoform P01116-2 G12D): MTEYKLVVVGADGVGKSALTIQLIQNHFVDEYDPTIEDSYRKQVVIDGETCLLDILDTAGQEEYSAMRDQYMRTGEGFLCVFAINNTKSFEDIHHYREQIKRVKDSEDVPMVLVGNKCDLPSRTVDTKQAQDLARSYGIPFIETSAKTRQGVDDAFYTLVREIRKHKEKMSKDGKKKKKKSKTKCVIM
(§1) The ratio for each compound concentration was calculated from the signal of the DMSO control group contained in each assay plate and the Alphalisa signal in each compound well. The compound concentration required for inhibitory concentration at 50% (IC50) was determined using a four-parameter logarithmic dose-response equation by testing the concentration of the compound and the value of the ratio. The endpoint value (IC50) of the reference compound was assessed in each experiment as a quality control measure. If the endpoint value is within three times the expected value, the experiment may be considered acceptable.
(In Alpha technology, singlet oxygen from a donor bead excites a nearby acceptor bead.)

For a further data set, the system named is HPAC. Put plainly: Anti-proliferative 2D CTG assay, HPAC. It counts as cell-based. The note with it: Homo sapiens, 96 h, HPAC cells, 4 days incubation, read-out: HPAC cell IC50. How it is done:
(§2) 1.1 Day 0 Cell Culture and Plating
(§3) Cells in a logarithmic growth phase were harvested and the cells were counted by using a […]. Cell viability was tested by using a trypan blue exclusion method to ensure that cell viability was above 90%. The cell concentration was adjusted to the desired final density, and 90 μL of cell suspension was added to a 96-well plate, then the cells were incubated overnight at 37° C., 5% CO2 and 95% humidity.
(§4) 10 μL PBS was added to each well of the TO plate containing cells. The CTG reagent was thawed and the plate was equilibrated to room temperature for 30 minutes. The CTG solution of 50 µL/well was added to each well. The cells were lysed by shaking on an orbital shaker for 5 minutes. The plate was left at room temperature for 20 minutes to stabilize the luminescence signal. The TO fluorescence signal value was read.
(§5) From the 10 mM stock solution, with a ratio of 1:5, 9-point serial dilutions were performed. The 10× medium containing the compound was transferred into corresponding wells of the 96 wells. The final maximum compound concentration was […] and the final DMSO concentration was 0.1%. The 96-well plate was placed in a 37° C. incubator and incubated for 4 days.
(§6) 50 μL/well of detection reagent (CTG) was added to the cells, and the signal was read in an Envision machine.
as §1, with “The percent inhibition (%) at” for “The ratio for”, “signal in” for “signal of”, “the HPE and ZPE” for “the DMSO”, “control wells and the fluorescence signal in the individual compound wells included” for “control group contained”, “assay plate. […]” for “assay plate and the Alphalisa signal in each compound well.”, “the inhibition percentage value.” for “the value of the ratio.”

For another data set, the system named is LS513. Put plainly: Anti-proliferative 2D CTG assay, LS513. It counts as cell-based. The conditions noted are these: Homo sapiens, LS-513, 96 h, LS513 cells, 4 days incubation, read-out: LS513 cell IC50. How it is done:
as §2, §3, §4, §5, §6
as §1, with “The percent inhibition (%) at” for “The ratio for”, “signal in” for “signal of”, “the HPE and ZPE” for “the DMSO”, “control wells and the fluorescence signal in the individual compound wells included” for “control group contained”, “assay plate. […]” for “assay plate and the Alphalisa signal in each compound well.”, “the inhibition percentage value.” for “the value of the ratio.”

Data set [1] in a line: Pharmacokinetic experiment in mice (single PO or IV administration). The note with it: male, ICR, mouse, plasma.
Source text: The purpose of this trial is to study the pharmacokinetic behavior of some compounds of the present invention, and the administration method is: single oral administration (PO) or intravenous administration (IV) to ICR mice.
ICR mice male N=9 original source: Shanghai Sippr-Bk Lab Animal Co., Ltd.
The compounds were weighed and dissolved in the corresponding solution (0.5% CMC+1% tween water solution or 10% PG+10% Solutol®+80% pH3 citrate buffer). The mixture was then shaken well and sonicated to prepare a 1 mg/mL stock solution. Nine mice were orally administered at a dose of 10 mg/kg or intravenously administered at a dose of 2 mg/kg after an overnight fast.
About 90 μL of blood was collected via the submandibular vein per time point, heparin sodium anticoagulant was added, the sample was placed on ice after collection, and plasma was centrifuged within 1 hour (centrifugation conditions: 8,000 rpm, 6 minutes, 2-8° C.). The blood collection timepoints were 0, 0.25, 0.5, 1, 2, 4, 6, 8 and 24 h. The samples were stored in a −20° C. refrigerator.
The plasma sample was 40 μL, 160 μL of ice-cold acetonitrile containing internal standard was added, vortexed for 3 minutes, and centrifuged at 11,000 rpm for 5 minutes. 100 μL of the supernatant was taken and added to 100 μL of water, 5 μL of the sample was taken and injected into LC/MS/MS for analysis.
Another data set concerns AsPC-1. Put plainly: Anti-proliferative 2D CTG assay, AsPC-1. It counts as cell-based. The note with it: Homo sapiens, ASPC1, 96 h, AsPC-1 cells, 4 days incubation, read-out: AsPC-1 cell IC50. How it is done: as §2, §3, §4, §5, §6
as §1, with “The percent inhibition (%) at” for “The ratio for”, “signal in” for “signal of”, “the HPE and ZPE” for “the DMSO”, “control wells and the fluorescence signal in the individual compound wells included” for “control group contained”, “assay plate. […]” for “assay plate and the Alphalisa signal in each compound well.”, “the inhibition percentage value.” for “the value of the ratio.”

In the next data set the test system is AGS. Put plainly: Anti-proliferative 2D CTG assay, AGS. The note with it: AGS cells, 4 days incubation, read-out: AGS cell IC50. It counts as cell-based. How it is done:
as §2, §3, §4, §5, §6
as §1, with “The percent inhibition (%) at” for “The ratio for”, “signal in” for “signal of”, “the HPE and ZPE” for “the DMSO”, “control wells and the fluorescence signal in the individual compound wells included” for “control group contained”, “assay plate. […]” for “assay plate and the Alphalisa signal in each compound well.”, “the inhibition percentage value.” for “the value of the ratio.”

Like-named read-outs stand apart in the source and are kept apart here.

For orientation: IC50 means the concentration that inhibits the measured activity by half. As usually defined, the AUC is the area under the concentration-time curve, a measure of exposure. Read a high AUC as high exposure. As usually defined, the Cmax is the maximum level reached in the sampled fluid or tissue. As usually defined, the half-life is the time in which the quantity being followed falls by half. Low values mean fast loss, high ones slow loss. Broadly, the bioavailability is dose-corrected exposure relative to a reference, in per cent. `[2H]C([2H])([2H])C([2H])([2H])[C@@]12CC[C@@H](CN(c3nc(OC[C@@]45CCCN4C/C(=C\F)C5)nc4c(F)c(-c5ccc(F)c6sc(N)c(C#N)c56)c(Cl)cc34)C1)N2` (single isomer, unassigned) [Example 361]: the IC50 on KRAS^G12D/cRAF stood at 7.1 nM. The IC50 in the data set on HPAC worked out at 38 nM. Further, the half-maximal inhibitory concentration (IC50) in the data set with LS513 came to 40 nM. In data set [1] (iv, 2 mg/kg), this compound showed an exposure (AUC) of 221 ng·h/mL, a Cmax of 179 ng/mL and a half-life of 13.7 h. For the same compound, in data set [1] (po, 10 mg/kg), the area under the curve (AUC) turned out to be 370 ng·h/mL, the Cmax is 164 ng/mL, the bioavailability turned out to be 33.5% and the half-life is 9.6 h.
Turning to `C#Cc1c(F)ccc2cc(O)cc(-c3ncc4c(N5C[C@@H]6CC[C@](C7CC7)(C5)N6)nc(OC[C@@]56CCCN5CC(=C(F)F)C6)nc4c3F)c12` [Example 45, 4-(4-((1S,5S)-1-cyclopropyl-3,8-diazabicyclo[3.2.1]octan-3-yl)-2-(((S)-2-(difluoromethylene)tetrahydro-1H-pyrrolizin-7a (5H)-yl)methoxy)-8-fluoropyrido [4,3-d]pyrimidin-7-yl)-5-ethynyl-6-fluoronaphthalen-2-ol], the IC50 at KRAS^G12D/cRAF is 52.5 nM; with HPAC, 133 nM; in the data set on LS513, 163 nM.
For `[2H]C([2H])([2H])OC[C@@]12CC[C@@H](CN(c3nc(OC[C@@]45CCCN4C/C(=C\F)C5)nc4c(F)c(-c5cc(O)cc6ccc(F)c(C#C)c56)ncc34)C1)N2` [Example 61, 5-ethynyl-6-fluoro-4-(8-fluoro-2-(((Z)-2-(fluoromethylene)tetrahydro-1H-pyrrolizin-7a(5H)-yl)methoxy)-4-((1R,5S)-1-((methoxy-d3)methyl)-3,8-diazabicyclo[3.2.1]octan-3-yl)pyrido[4,3-d]pyrimidin-7-yl)naphthalen-2-ol], the results for the concentration for half-maximal inhibition (IC50) at KRAS^G12D/cRAF, with AsPC-1 and with AGS were 2.5 nM, 37.9 nM and 3.4 nM, respectively.
Regarding `C#Cc1c(F)ccc2cc(O)cc(-c3ncc4c(N5C[C@@H]6CC[C@](CC)(C5)N6)nc(OC[C@@]56CCCN5C/C(=C/F)C6)nc4c3F)c12` [Example 80, 4-(4-((1R,5S)-1-ethyl-3,8-diazabicyclo[3.2.1]octan-3-yl)-8-fluoro-2-(((S,E)-2-(fluoromethylene)tetrahydro-1H-pyrrolizin-7a (5H)-yl)methoxy)pyrido[4,3-d]pyrimidin-7-yl)-5-ethynyl-6-fluoronaphthalen-2-ol], the half-inhibitory concentration (IC50) at KRAS^G12D/cRAF is 6.2 nM; with AsPC-1, 39.6 nM; in the data set with AGS (Homo sapiens, AGS, 96 h), 5.8 nM.
On the same counts, the results for `[2H]C([2H])([2H])OC[C@@]12CC[C@@H](CN(c3nc(OC[C@@]45CCCN4C/C(=C/F)C5)nc4c(F)c(-c5cc(O)cc6ccc(F)c(C#C)c56)ncc34)C1)N2` [Example 84, 5-ethynyl-6-fluoro-4-(8-fluoro-2-(((S,E)-2-(fluoromethylene)tetrahydro-1H-pyrrolizin-7a (5H)-yl)methoxy)-4-((1R,5S)-1-((methoxy-d3)methyl)-3,8-diazabicyclo[3.2.1]octan-3-yl)pyrido[4,3-d]pyrimidin-7-yl) naphthalen-2-ol] are 3.9 nM, 59.3 nM and 11.4 nM.
On the same counts, the results for `C#Cc1c(F)ccc2cc(O)cc(-c3ncc4c(N5C[C@@H]6CC[C@](C7CC7)(C5)N6)nc(OC[C@@]56CCCN5C/C(=C/F)C6)nc4c3F)c12` [Example 90, 4-(4-((1S,5S)-1-cyclopropyl-3,8-diazabicyclo[3.2.1]octan-3-yl)-8-fluoro-2-(((S,E)-2-(fluoromethylene)tetrahydro-1H-pyrrolizin-7a(5H)-yl)methoxy)pyrido[4,3-d]pyrimidin-7-yl)-5-ethynyl-6-fluoronaphthalen-2-ol] are 40.7 nM, 103 nM and 28.1 nM.
As for `[2H]C([2H])([2H])[C@@]12CC[C@@H](CN(c3nc(OC[C@@]45CCCN4C/C(=C\F)C5)nc4c(F)c(-c5cc(O)cc6ccc(F)c(C#C)c56)c(F)cc34)C1)N2` [Example 229, 4-(6,8-difluoro-2-(((S,Z)-2-(fluoro-methylene)tetrahydro-1H-pyrrolizin-7a(5H)-yl)methoxy)-4-((1R,5S)-1-(methyl-d3)-3,8-diazabicyclo[3.2.1]octan-3-yl)quinazolin-7-yl)-5-ethynyl-6-fluoro-naphthalen-2-ol], the concentration for half-maximal inhibition (IC50) at KRAS^G12D/cRAF is 20.6 nM; in the data set with HPAC, 87.5 nM; with LS513, 33.3 nM.
In turn, `[2H]C([2H])([2H])[C@@]12CC[C@@H](CN(c3nc(OC[C@@]45CCCN4C/C(=C\F)C5)nc4c(F)c(-c5cc(N)cc6ccc(F)c(C#C)c56)ncc34)C1)N2` [Example 355, 5-ethynyl-6-fluoro-4-(8-fluoro-2-(((S,Z)-2-(fluoromethylene)tetrahydro-1H-pyrrolizin-7a(5H)-yl)methoxy)-4-((1R,5S)-1-(methyl-d3)-3,8-diazabicyclo[3.2.1]octan-3-yl)pyrido[4,3-d]pyrimidin-7-yl)naphthalen-2-amine] displayed a half-inhibitory concentration (IC50) on KRAS^G12D/cRAF of 11 nM. Further, in the data set on AsPC-1, the concentration for half-maximal inhibition (IC50) came to 66.1 nM. Further, the concentration for half-maximal inhibition (IC50) with AGS (Homo sapiens, AGS, 96 h) was determined as 17.7 nM. In data set [1] (iv, 2 mg/kg), this compound showed an AUC of 223 ng·h/mL, a Cmax of 68.9 ng/mL and a half-life of 7.2 h. In data set [1] (po, 10 mg/kg), the AUC was found to be 466 ng·h/mL, the maximum concentration (Cmax) came out at 120 ng/mL, the bioavailability amounted to 41.7% and the half-life is 9.1 h.
With `[2H]C([2H])([2H])C([2H])([2H])[C@@]12CC[C@@H](CN(c3nc(OC[C@@]45CCCN4CC(=C)C5)nc4c(F)c(-c5cc(N)cc6ccc(F)c(C#C)c56)ncc34)C1)N2` [Example 357, 4-(4-((1R,5S)-1-(ethyl-d5)-3,8-diazabicyclo[3.2.1]octan-3-yl)-8-fluoro-2-(((S)-2-methylenetetrahydro-1H-pyrrolizin-7a(5H)-yl)methoxy)pyrido[4,3-d]pyrimidin-7-yl)-5-ethynyl-6-fluoronaphthalen-2-amine], the IC50 with HPAC is 46.9 nM; with LS513, 57.4 nM; in the data set with AGS (Homo sapiens, AGS, 96 h), 23 nM.
For `[2H]C([2H])([2H])C([2H])([2H])[C@@]12CC[C@@H](CN(c3nc(OC[C@@]45CCCN4C/C(=C\F)C5)nc4c(F)c(-c5cccc6sc(N)c(C#N)c56)c(Cl)cc34)C1)N2` [Example 362, 2-amino-4-(6-chloro-4-((1R,5S)-1-(ethyl-d5)-3,8-diazabicyclo [3.2.1]octan-3-yl)-8-fluoro-2-(((S,Z)-2-(fluoromethylene)tetra-hydro-1H-pyrrolizin-7a(5H)-yl)methoxy)quinazolin-7-yl)benzo [b]thiophene-3-carbonitrile], the IC50 on KRAS^G12D/cRAF worked out at 27.7 nM; in the data set with HPAC, 61.8 nM; in the data set on LS513 it was 65.7 nM.
On the same counts, the results for `[2H]C([2H])([2H])OC[C@@]12CC[C@@H](CN(c3nc(OC[C@@]45CCCN4C/C(=C\F)C5)nc4c(F)c(-c5cccc6sc(N)c(C#N)c56)c(Cl)cc34)C1)N2` [Example 363, 2-amino-4-(6-chloro-8-fluoro-2-(((S,Z)-2-(fluoromethylene)tetra-hydro-1H-pyrrolizin-7a(5H)-yl)methoxy)-4-((1R,5S)-1-((methoxy-d3)methyl)-3,8-diaza-bicyclo[3.2.1]octan-3-yl)quina-zolin-7-yl)benzo[b]thiophene-3-carbonitrile] are 18.6 nM, 66.3 nM and 82.3 nM.
